From ChEMBL document CHEMBL5724564, “Patient-derived NASH model to assess the effects of chemical probes on hepatocyte regenerations” (2024)

Each compound was assayed on Hepatocyte spheroids (assay: Cell viability is assessed by cellular ATP assay using CellTiter-Glo Luminescent kit. Viability is expressed as average RLU from biological replicates and normalized to negative control.Toxicity is defined as those with normalized ATP significantly less than 80 percent of the negative control.). Conditions: not given.
Type: functional, Homo sapiens
Parameters: unit not given here

Structure (SMILES)	Proliferation
Cc1c(NC(=O)c2ccc(C(C)(C)C)cc2)cccc1-c1cn(C)c(=O)c(Nc2ccc(C(=O)N3CCOCC3)cc2)n1	0.2187
CCOC(=O)c1c(/C(C#N)=C\N)c2ccc(Cl)c(Cl)c2n1C	0.874
CCOc1cc(N2CCC(O)CC2)ccc1Nc1ncc2c(n1)N(C)c1ccccc1C(=O)N2C	0.02286
CNc1nc(-c2ccc3c(N)n[nH]c3c2)cc(N2C[C@@H](C(=O)NC3CCCCC3)CC[C@H]2C)n1	0.1604
CSc1ccc(-c2cc3ncnc(SCC(=O)O)c3s2)cc1	0.882
CCn1c(-c2nonc2N)nc2c(C#CC(C)(C)O)ncc(OCC3CCCNC3)c21 (configuration not stated)	0.006402
Cn1cc(-c2ccc3c(c2)CCN3C(=O)Cc2cccc(C(F)(F)F)c2)c2c(N)ncnc21	0.03291
CCCCNc1ncc(-c2ccc(CN3CCOCC3)cn2)c(N[C@H]2CC[C@H](O)CC2)n1	0.01481
COc1cc2c(cc1OCCCN1CCCC1)N=C(N)C21CCC1	0.2543
COc1ccccc1-c1cc(Nc2cccc(CS(N)(=O)=O)c2)ncn1	0.2719
COc1ccccc1C(=O)Nc1cc2c(cc1N1CCCC1)n(C)c(=O)n2C	0.003878
O=C(Nc1ccc2[nH]nc(-c3ccncc3)c2c1)[C@@H]1CCN(CC(=O)N2CCN(c3ccc(-c4ncccn4)cc3)CC2)C1	0.03313
Nc1nc(NC2CC2)cc(-c2cccc(Cl)c2Cl)n1	0.05031
COc1cc(-c2cn(C)c(=O)c3cnccc23)c(OC)cc1CN(C)C	0.1518
O=C(N[C@@H]1CCOC1)C1CCN(c2nc3cc(Cl)c(Cl)cc3n2-c2ccc3ccccc3n2)CC1	0.003884
CC(=O)c1cc(-c2cc(C(=O)NC3CC3)ccc2C)c2ncccn12	0.01914
CN1C[C@H](Nc2cnn(C)c(=O)c2Br)C[C@H](c2ccccc2)C1	0.003884
Cc1cc2c(cc1N1C(=O)c3cccc4c(CCCO)ccc(c34)C1=O)n(C)c(=O)n2C	0.07854
CN(C)[C@H]1CN(C2CCc3cccc(F)c32)C[C@@H]1c1ccc(N2CCN(S(C)(=O)=O)CC2)cc1 (some centres not stated)	0

Structure (SMILES)	Proliferation
Nc1ncnc2c1ccn2[C@@H]1O[C@H]([C@H](O)c2ccccc2)[C@@H](O)[C@H]1O	0.1599
CO[C@H]1CNC[C@@H](OCC2CCC(F)(F)CC2)[C@@H]1Nc1ncc(-c2cncc(C)c2)c2cc(C)c(=O)[nH]c12	0.02957
COc1cc(Nc2ccnc3ccc(Br)cc23)cc(OC)c1OC	0.5391
CCN(CC)S(=O)(=O)Nc1cccc(-c2ccc3c(NC(=O)C4CC4)n[nH]c3c2)c1	0.0004
CC(C)(C)S(=O)(=O)c1cc2c(Nc3ccc4scnc4c3)ncnc2cc1OCCO	0.5541
Cc1cn(-c2cc(NC(=O)c3ccc4c(c3)CN(c3cncnc3)C[C@@H]4C)cc(C(F)(F)F)c2)cn1	0.4149
CNCCN1CCC(c2cc(CN(C)C(=O)c3cccc(Oc4ccccc4)c3)ccn2)CC1	0.03291
CN(C)C(=O)/C(C#N)=C/c1ccc(-c2nc3cnc4[nH]ccc4c3n2C2CCCCC2)o1	0.07463
COc1c(C)cc(NC(=O)c2nn(Cc3ccc(F)cc3)c3c2CN(C(=O)c2ccc[nH]2)C[C@]3(C)C(N)=O)cc1C	0.06587
Cc1nnc2c3ccccc3c(N[C@@H](C)[C@H](c3ccccc3)N(C)C)nn12	0.0435
Cl.Cl.NC1(c2ccc(-c3nc4ccn5c(=O)[nH]nc5c4cc3-c3ccccc3)cc2)CCC1	0.5443
CCCCN(CCCC)C(=O)CN1C[C@H](c2cc(OC)c3c(c2)OCO3)[C@@H](C(=O)O)[C@@H]1CC(C)(C)CCC.Cc1ccc(S(=O)(=O)O)cc1	0.6131
CCCCN(CCCC)C(=O)CN1C[C@@H](c2cc(OC)c3c(c2)OCO3)[C@H](C(=O)O)[C@H]1CC(C)(C)CCC.Cl	0.1508
CCNC(=O)c1cc2c(N3CCOCC3C)ccnc2[nH]1 (configuration not stated)	0.05192
COc1ccccc1C(=O)Nc1cc2c(cc1N1CCNCC1C)n(C)c(=O)n2C (configuration not stated)	0.1835
O=C(c1ccc2[nH]ccc2c1)N1CCN(S(=O)(=O)c2ccc3[nH]c(=O)oc3c2)CC1	0.6071
O=C(Nc1ccc(I)cc1)N1CCC(n2c(=O)[nH]c3c(Br)cccc32)CC1	0.001093
Nc1cc(N)c(NC(=O)Nc2ccc(C(=O)N[C@@H](CCC(=O)O)C(=O)O)cc2)c(=O)[nH]1	0.01013
CS(=O)(=O)Nc1cc([N+](=O)[O-])ccc1OC1CCCCC1	0.6769

Same assay, conditions: Concentration range 1nM-1uM

Structure (SMILES)	Proliferation
Cc1sc2c(c1C)C(c1ccc(Cl)cc1)=NC(CC(=O)OC(C)(C)C)c1nnc(C)n1-2 (configuration not stated)	0.001662
Cl.Cl.c1ccc([C@@H]2C[C@H]2NC2CCNCC2)cc1	0.6494

Same assay, conditions: Concentration range 3nM-3uM

Structure (SMILES)	Proliferation
COc1ccc(CCc2nc3cc(-c4c(C)noc4C)ccc3n2C[C@H](C)N2CCOCC2)cc1Cl	0.2022

Same assay, conditions: Concentration range 5nM-5uM

Structure (SMILES)	Proliferation
COc1cc2c(NC3CCN(C(C)C)CC3)nc(C3CCCCC3)nc2cc1OCCCN1CCCC1	0.05128
CCCc1cc(C)[nH]c(=O)c1CNC(=O)c1cc(-c2ccnc(N3CCN(C)CC3)c2)cc2c1cnn2C(C)C	0.009822
COc1cc2c(NC3CCN(C(C)C)CC3)nc(N3CCC(F)(F)CC3)nc2cc1OCCCN1CCCC1	0.008491
COc1cc2c(cc1NS(=O)(=O)c1ccc(Br)cc1C)n(C)c(=O)n2C	0.003884
CCC(=O)N1CCOc2c(cc(-c3ccc(OC)c(OC)c3)cc2OCC2CCCN(C)C2)C1 (configuration not stated)	0.8195
Cn1cc(CCn2cnc(-c3cnn(C)c3)c2-c2ccc(C#N)cc2)cn1	0.05329

Same assay, conditions: Concentration range 10nM-10uM

Structure (SMILES)	Proliferation
COc1ccccc1S(=O)(=O)Nc1ccc2c(c1)CN(C)C(=O)N2	0.003099
CC(C)N(CCCNC(=O)Nc1ccc(C(C)(C)C)cc1)C[C@H]1O[C@@H](n2cc(Br)c3c(N)ncnc32)[C@H](O)[C@@H]1O	0.01234
CCCOc1ccn2c(C(C)=O)cc(-c3ccccc3S(C)(=O)=O)c2c1	0.6349
COc1cc(C#N)ccc1S(=O)(=O)Nc1ccc2c(c1)cc(C)c(=O)n2C	0.0004
O=C(/C=C/N1C[C@H]2C[C@@H]1CN2c1ccccn1)c1ccccc1O	0.02966
Cc1cc(=O)n(C)c2cc(N3C(=O)CC[C@H](NS(=O)(=O)CC(C)C)[C@H]3c3ccc(Cl)cc3)ccc12	0.2341
CCn1cc(-c2cccc(C(F)(F)F)c2)c2sc(C(=N)NC3CCS(=O)(=O)CC3)cc2c1=O	0.05754
CN1CCN(c2ccc(-c3cccc(CN4CCOCC4)c3)cc2NC(=O)c2c[nH]c(=O)cc2C(F)(F)F)CC1	0.001358
CC(C)Oc1ccc(-c2c[nH]cc2CN(C)CCN)cc1	0.2793
CNCCN1CCC(OCc2ccccc2)CC1	0.406
O=C(NCC(=O)N1CCCC1)Nc1ccc2cnccc2c1	0.06734
Clc1cc2c(NC3CCCC3)nnc(-c3ccncc3)c2cc1Cl	0.02485
O=C(NC[C@H](O)CN1CCc2ccccc2C1)c1ccnc(NC2CCC2)c1	0.0004
Cl.O=C([C@@H](Cc1cccc(C(F)(F)F)c1)NS(=O)(=O)c1cc(F)c2c(c1)CCNC2)N1CCCC1	0.01564
COc1cc(C(=O)N2CC[C@@H](O)[C@@H](N)C2)cc2nc(-c3cc4ccccc4n3CC3CC3)n(C)c12.Cl	0.09717
